The test system of assay [1] is imiquimod induced mouse model of psoriasis. Put plainly: imiquimod induced mouse model of psoriasis. The assay is classed as in vivo, C57BL/6 mice. The text has this: FIG. 2A illustrates the methodological details of an imiquimod induced mouse model of psoriasis. In particular, shown is a timeline of the psoriasis induction model and application of the MARCKS inhibitor (BIO 11006) and the three different outcomes analyzed.
FIG. 2B illustrates the skin thickness in micrometers of mice administered imiquimod daily for seven (7) days in order to mimic psoriasis in one (1) test group as compared to the skin thickness in micrometers from either of two (2) control groups. The test group consisted of mice administered imiquimod daily plus intraperitoneal (ip) injection of BIO 11006 as a daily single dose on each of days 1-7. The two (2) control groups consisted of (1) mice administered vaseline and (2) mice administered imiquimod daily and phosphate buffered saline (PBS). N=6-7 mice, mean+SD, 1-way ANOVA, Tukey test.
FIG. 3 depicts images of mice the skin on the nape of the neck for the test group and two control groups described for FIG. 2B and Example 1. #1, 2 and 3 represent same treatments.
FIG. 4 illustrates the percent dryness, flakiness, skin bumps and redness the skin on the nape of the neck for the test group and two control groups described for FIG. 2B and Example 1. At a scale of 0-5, 0 indicated no visible signs or symptoms; 1-3 indicated moderate forms of the respective sign or symptom; 4-5 indicated major forms of the respective sign or symptom.
Since skin inflammation and itch are common problems, two different mouse models with inflammation and itch were developed and used for rigorous in vivo testing of the inhibition of skin inflammation and itch in response to administration of the MARCKS inhibitor BIO11006 (Ac-GAQFSKTAAK-OH; SEQ ID NO: 106). The first model is a mouse model of AD induced using MC903. The second model is a mouse model of psoriasis induced using imiquimod. Imiquimod-induced disease progression of skin inflammation and itch resemble the MC903 mouse model. As such, the same relative timeline and drug delivery was used for the psoriasis mouse model as described for MC903 mouse model with exception that the terminal day was day 7 (D7 in FIG. 2A). As outlined in FIGS. 1A and 2A, these mouse models were used to conduct a comprehensive examination of how BIO11006 spatially and kinetically changed the skin following the onset of AD-like or psoriasis-like disease symptoms by measuring skin thickness, histological, molecular analysis of inflammatory markers, and itch behavior.
Given that the significant skin inflammation was expected to start at day 5, BIO11006 (100 μM) was administered by intraperitoneal injection in three (3) different settings as described in FIG. 2A (i.e., daily single doses from Day 1 through Day 7, Days 6 and 7 or just Day 7). The skin thickness was measured at Day 0, 1, 3, 5, and 7. Additionally, the itch behavior was recorded at Day 0 and Day 7.

For assay [2], the system named is MC903 induced mouse model of atopic dermatitis (AD). Put plainly: MC903 induced mouse model of atopic dermatitis (AD). The assay is classed as in vivo, C57BL/6 mice. The conditions noted are these: BIO11006 100 μM ip; day 10 only, days 9-10, days 4-10 or days 1-10. From the text: FIG. 1A illustrates the methodological details of an MC903 induced mouse model of atopic dermatitis (AD). In particular, shown is a timeline of the AD induction model and application of the MARCKS inhibitor (BIO 11006) and the three different outcomes analyzed.
FIG. 1B illustrates the skin thickness in micrometers of mice administered MC903 daily for ten (10) days in order to mimic atopic dermatitis (AD) in each of four (4) test groups as compared to the skin thickness in micrometers of mice from either of two (2) control groups. The four (4) test groups consisted of mice administered MC903 daily plus intraperitoneal (ip) injection of BIO 11006 as either (1) a single dose on day 10, (2) a single dose on each of days 9 and 10, (3) a single dose on each of days 4-10, and (4) a daily single dose on each of days 1-10. The two (2) control groups consisted of (1) mice administered the vehicle only and (2) mice administered MC903 daily and vehicle only. […]
Given that the significant skin inflammation was expected to start at day 5, BIO11006 (100 μM) was administered by intraperitoneal injection in four (4) different settings as described in FIG. 1A (i.e., daily single doses from Day 1 through Day 10, Day 4 through Day 10, Days 9 and 10 or just Day 10). The skin thickness was measured at Day 0, 1, 3, 5, 7 and 10. Additionally, the itch behavior was recorded at Day 0 and Day 10.

The mark [3] stands for this setting: BIO11006 100 μM ip daily, days 1-7, nape of the neck, scale 0-5 (FIG. 4).

Results on one substance are retold here after patent publication US20250262272A1, “PEPTIDES AND METHODS OF USE THEREOF IN TREATING SKIN DISEASES” (Park Strategic Ventures LLC, priority 2022, published 2025).

Consider Ac-GAQFSKTAAK-OH [BIO 11006], for which, in assay [1] (BIO11006 100 μM ip daily, days 1-7 (FIG. 3)), the “visible appearance of the skin on the nape of the neck” value was “visible protection/improvement”. In assay [1] (setting [3]), the skin bumps result is “significant decreases”, the skin dryness result is recorded as “significant decreases”, the skin flakiness entry was “significant decreases” and the skin redness result is listed as “significant decreases”. For the same substance, in assay [1] (BIO11006 100 μM ip, daily single dose days 1-7, end of the study, vs imiquimod + PBS (FIG. 2B)), the skin thickness result was “significant decrease”. In addition, the “results in the mouse model of AD (skin thickness, FIG. 1B)” value in assay [2] is recorded as “less conclusive”.
